Results as given in ChEMBL document CHEMBL1221220, “Transport and signaling via the amino acid binding site of the yeast Gap1 amino acid transceptor” (Nat Chem Biol, 2009).
Positions count from the first letter of the chain named. The source made the active and inactive calls. No cut-off for these calls is given here.

What was measured:
[1] = test system: T1, General amino-acid permease GAP1 (Saccharomyces cerevisiae), P19145 [G390C]; test: Induction of yeast Gap1 G390C mutant-mediated amino acid uptake at 2 mM in presence of 10 mM MTSEA treated before compound addition
T1 sequence (whole entry): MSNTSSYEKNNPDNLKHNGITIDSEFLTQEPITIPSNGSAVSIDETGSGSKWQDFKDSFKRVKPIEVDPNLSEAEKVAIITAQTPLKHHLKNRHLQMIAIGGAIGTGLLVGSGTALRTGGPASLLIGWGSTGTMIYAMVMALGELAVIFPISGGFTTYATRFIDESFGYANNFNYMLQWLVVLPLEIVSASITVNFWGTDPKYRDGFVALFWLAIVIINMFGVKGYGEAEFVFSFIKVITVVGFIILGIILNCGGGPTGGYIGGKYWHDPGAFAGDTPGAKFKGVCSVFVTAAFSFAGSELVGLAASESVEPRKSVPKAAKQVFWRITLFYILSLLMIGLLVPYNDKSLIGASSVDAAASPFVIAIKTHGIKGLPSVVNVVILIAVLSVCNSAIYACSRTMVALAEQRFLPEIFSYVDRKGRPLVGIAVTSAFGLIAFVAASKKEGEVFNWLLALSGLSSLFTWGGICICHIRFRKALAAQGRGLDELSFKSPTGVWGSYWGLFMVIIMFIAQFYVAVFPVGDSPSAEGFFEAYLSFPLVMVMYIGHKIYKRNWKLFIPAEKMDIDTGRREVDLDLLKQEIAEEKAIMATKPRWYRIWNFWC

[2] = test system: T2, General amino-acid permease GAP1 (Saccharomyces cerevisiae), P19145 [A403C]; test: Induction of yeast Gap1 A403C mutant-mediated […] activation at 2 mM in presence of 10 mM MTSEA treated before compound addition
T2 sequence (whole entry): T1 sequence (whole entry) with C390G, A403C

[3] = test system: T3, General amino-acid permease GAP1 (Saccharomyces cerevisiae), P19145 [C397C]; test: Induction of yeast Gap1 C397C mutant-mediated […] activation at 10 mM
T3 sequence (whole entry): T1 sequence (whole entry) with C390G

[4] = test system: T4, General amino-acid permease GAP1 (Saccharomyces cerevisiae), P19145 [I382C]; test: Activation of yeast Gap1 I382C mutant-mediated amino acid uptake at 10 mM
T4 sequence (whole entry): T1 sequence (whole entry) with I382C, C390G

**Q.** Which Activity [1] does the source give for `NC(=O)NCCC[C@H](N)C(=O)O` here?
**A.** Its Activity is “Active”.

**Q.** What about the inhibition [2] of the same molecule?
**A.** Its inhibition is “Active”.

**Q.** What about the Activity [3] of the same molecule?
**A.** The Activity was “inactive”.

**Q.** And the Activity [4]?
**A.** Its Activity is “inactive”.
